Converted amounts (≈) assume the structure as drawn.
Key:
[1] = tested on: UEA-1 binding sites on Caco-2 cell membrane preparations; assay: Single tier competition assay: inhibition of biotinylated UEA-1 binding, compound and biotinylated UEA-1 incubated together; parameters: species or system human
Experimental: (§1) The epithelial cell binding ability of compounds and mixtures obtained from synthetic combinatorial libraries was determined by competition assays. These assays were set up to measure the inhibition of binding of biotinylated UEA-1 to membrane preparations of the epithelial cell line Caco-2 (colon carcinoma cells-2), by compounds and mixtures of the combinatorial libraries. This cell line is a conventional model for epithelial cells.
(§2) Two competition inhibition assays were used in this case, namely single tier and two tier assays. These assays differed from each other in that in the single tier assay, the mixtures/compounds and the biotinylated UEA-1 were incubated together with the Caco-2 cell membrane preparations, while in case of the two-tier assay, the mixture/compounds were allowed to incubate alone with the cell membranes in the absence of biotinylated UEA-1, which was added in the next step. Addition of the extra step in the two-tier assay was to ensure that the compounds inhibiting the binding of biotinylated UEA-1 to the Caco-2 cell membranes were doing so by themselves binding to surface receptors on the Caco-2 cells and not to the biotinylated UEA-1. Each assay will be described in detail.
(§3) • 1. Confluent Caco-2 cell monolayers (grown in 75 cm^2 flasks for up to 1 week at 37° C. and 5% CO2) were washed twice in Dulbecco's PBS (DPBS). • 2. Cell monolayers were treated with 10 mM EDTA-DPBS for 5–10 min at 37° C. and cells were harvested by centrifugation at 1000 rpm for 5 min. • 3. Cells were washed 3 times in DPBS. • 4. […] The cells were homogenised for 30 sec. • 6. The homogenates were centrifuged in hard walled tubes at 40,000 rpm for 45 min at 4° C. • 7. […] The supernatant was removed and stored on ice. The procedure was repeated adding the second supernatant to the first. • 8. The protein concentration was determined using e.g. a Bio-Rad protein assay. • 9. All fractions were stored at −80° C. prior to use. Single Tier Assays: • 1. 96-well microtiter plates were coated with membrane preparations of Caco-2 cells either by allowing them to incubate on the plates for 2½ hours at room temperature or by incubating them overnight at 4° C. 100 μl of 10 μg/ml (in 0.05 M carbonate buffer, pH 9.6) of membrane preparation was added to each well. • 2. The plates were flicked out, patted dry and blocked with bovine serum albumin (BSA)/DPBS (200 μl/well) for 1 to 4 hours at room temperature after which they were washed three times in water. • 3. […] Control wells were also set up in which the Caco-2 cell membrane preparations were incubated with unconjugated UEA-1. […] Following overnight incubation the plates were washed thoroughly (3–6 times). The plates were flicked out, patted dry and biotinylated UEA-1 was detected with commercial Streptavidin conjugated to horseradish peroxidase (HRP) (CalBiochem). […] The plates were left to incubate for an hour at room temperature. • 6. The plates were then washed 3–6 times and the biotin-streptavidin binding was detected by adding an HRP substrate OPD (orthophenyl diamine) to each well. 100 μl/well of this substrate at a final concentration of 1.6 mg/ml was added to each well. Before adding to the wells, this substrate was activated by addition of 50 μl of 3% H2O2 per plate and the reaction was allowed to develop in the dark. • 7. The reaction was stopped by adding 50 μl of 4 N H2SO4 to each well after approximately 5–10 minutes or when sufficient colour had developed. The OD490 (absorbance at 490 nm) of each well was measured using a conventional 96 well plate reading spectrophotometer. Two Tier Assays: • 1. 96 well plates were coated with Caco-2 cell membrane preparations in the same manner as described in the single tier assay. • 2. […] 100 μl at these final concentrations were added to each well. • 4. The plates were then left to incubate overnight, a step that would allow the mixtures and compounds to interact with the Caco-2 cell membranes without the presence of the competitor (biotinylated UEA-1) itself. • 5. […]

[2] = tested on: UEA-1 binding sites on Caco-2 cell membrane preparations; assay: Two tier competition assay: compound incubated alone with membranes, biotinylated UEA-1 added in next step; parameters: species or system human
Experimental: as §1, §2, §3

[3] = Table 8, galloyl constructs, read-out: IC 50 (uM) 1st tier (converted)
[4] = library MSI 27, read-out: Single Tier Assay IC50
[5] = Table 8, galloyl constructs, read-out: IC 50 (uM) 2nd tier
[6] = library MSI 27, read-out: Two Tier Assay IC50

Structure (SMILES): CC(=O)NC(CCCCNC(=O)c1cc(O)c(O)c(O)c1)C(N)=O (stereo not shown) [Cpd 14]
- IC 50 (ug/ml) 1st tier ([1]; Table 8, galloyl constructs): 72 µg/mL (≈ 212 µM)
- IC50 [1, 3]: 54 µM
- Single Tier Assay IC50 ([1]; library MSI 27): 129.70 µg/mL
- IC50 [1, 4]: 382 µM
- IC 50 (ug/ml) 2nd tier ([2]; Table 8, galloyl constructs): 211 µg/mL (≈ 622 µM)
- IC50 [2, 5]: 160 µM
- Two Tier Assay IC50 ([2]; library MSI 27): 91.52 µg/mL
- IC50 [2, 6]: 270 µM

Structure (SMILES): CC(=O)NC(CCCCNC(=O)c1ccc(O)cc1)C(N)=O (stereo not shown) [Cpd 15]
- Single Tier Assay IC50 ([1]; library MSI 27): 111.40 µg/mL
- IC50 [1, 4]: 362 µM
- Two Tier Assay IC50 ([2]; library MSI 27): 86.81 µg/mL
- IC50 [2, 6]: 282 µM

Structure (SMILES): CC(=O)NC(CCCCNC(=O)c1cc(O)cc(O)c1)C(N)=O (stereo not shown) [Cpd 16]
- IC50 [1, 4]: 773 µM
- Two Tier Assay IC50 ([2]; library MSI 27): 108.30 µg/mL
- IC50 [2, 6]: 335 µM

Structure (SMILES): COc1cc(C(=O)NCCCCC(NC(=O)c2cc(OC)c(O)c(OC)c2)C(=O)NCCCCC(NC(=O)C(CCCCNC(=O)c2cc(OC)c(O)c(OC)c2)NC(=O)c2cc(OC)c(O)c(OC)c2)C(N)=O)cc(OC)c1O (stereo not shown) [Cpd 17]
- Single Tier Assay IC50 ([1]; library MSI 27): 145.80 µg/mL
- IC50 [1, 4]: 130 µM
- Two Tier Assay IC50 ([2]; library MSI 27): 95.95 µg/mL
- IC50 [2, 6]: 85.6 µM

Structure (SMILES): COc1ccc(C(=O)NCCCCC(NC(=O)c2ccc(OC)c(OC)c2)C(=O)NCCCCC(NC(=O)C(CCCCNC(=O)c2ccc(OC)c(OC)c2)NC(=O)c2ccc(OC)c(OC)c2)C(N)=O)cc1OC (stereo not shown) [Cpd 18]
- Single Tier Assay IC50 ([1]; library MSI 27): 111.30 µg/mL
- IC50 [1, 4]: 105 µM
- Two Tier Assay IC50 ([2]; library MSI 27): 90.21 µg/mL
- IC50 [2, 6]: 85.3 µM

Structure (SMILES): CCOc1cc(C(=O)NCCCCC(NC(=O)c2cc(OCC)c(OCC)c(OCC)c2)C(=O)NCCCCC(NC(=O)C(CCCCNC(=O)c2cc(OCC)c(OCC)c(OCC)c2)NC(=O)c2cc(OCC)c(OCC)c(OCC)c2)C(N)=O)cc(OCC)c1OCC (stereo not shown) [Cpd 19]
- IC50 [1, 4]: 186 µM
- IC50 [2, 6]: 186 µM

Structure (SMILES): NC(=O)C(CCCCNC(=O)C(CCCCNC(=O)c1cc(O)c(O)c(O)c1)NC(=O)c1cc(O)c(O)c(O)c1)NC(=O)C(CCCCNC(=O)c1cc(O)c(O)c(O)c1)NC(=O)c1cc(O)c(O)c(O)c1 (stereo not shown) [Cpd 22]
- IC 50 (ug/ml) 1st tier ([1]; Table 8, galloyl constructs): 10 µg/mL (≈ 9.9 µM)
- IC50 [1, 3]: 10 µM
- Single Tier Assay IC50 ([1]; library MSI 27): 17.61 µg/mL
- IC50 [1, 4]: 17.4 µM
- IC 50 (ug/ml) 2nd tier ([2]; Table 8, galloyl constructs): 1 µg/mL (≈ 0.99 µM)
- IC50 [2, 5]: 1 µM
- Two Tier Assay IC50 ([2]; library MSI 27): 2.86 µg/mL
- IC50 [2, 6]: 2.84 µM

Structure (SMILES): NC(=O)C(CCCCNC(=O)C(CCCCNC(=O)c1cc(O)cc(O)c1)NC(=O)c1cc(O)cc(O)c1)NC(=O)C(CCCCNC(=O)c1cc(O)cc(O)c1)NC(=O)c1cc(O)cc(O)c1 (stereo not shown) [Cpd 24]
- IC50 [1, 4]: 265 µM
- IC50 [2, 6]: 265 µM

Structure (SMILES): CCOc1cc(C(=O)NCCCCC(NC(=O)C(CCCCNC(=O)c2cc(OCC)c(OCC)c(OCC)c2)NC(=O)c2cc(OCC)c(OCC)c(OCC)c2)C(N)=O)cc(OCC)c1OCC (stereo not shown) [Cpd 27]
- IC50 [1, 4]: 255 µM
- IC50 [2, 6]: 255 µM

Structure (SMILES): COc1cc(C(=O)NCCCCC(NC(=O)C(CCCCNC(=O)c2cc(OC)c(OC)c(OC)c2)NC(=O)c2cc(OC)c(OC)c(OC)c2)C(N)=O)cc(OC)c1OC (stereo not shown) [Cpd 28]
- IC50 [1, 4]: 292 µM
- IC50 [2, 6]: 292 µM

Structure (SMILES): NC(=O)C(CCCCNC(=O)c1cc(O)c(O)c(O)c1)NC(=O)C(CCCCNC(=O)c1cc(O)c(O)c(O)c1)NC(=O)c1cc(O)c(O)c(O)c1 (stereo not shown) [Cpd 30]
- IC 50 (ug/ml) 1st tier ([1]; Table 8, galloyl constructs): 14 µg/mL (≈ 19.2 µM)
- IC50 [1, 3]: 19 µM
- Single Tier Assay IC50 ([1]; library MSI 27): 25.89 µg/mL
- IC50 [1, 4]: 35.5 µM
- IC 50 (ug/ml) 2nd tier ([2]; Table 8, galloyl constructs): 5 µg/mL (≈ 6.85 µM)
- IC50 [2, 5]: 7 µM
- Two Tier Assay IC50 ([2]; library MSI 27): 8.36 µg/mL
- IC50 [2, 6]: 11.5 µM

Structure (SMILES): NC(=O)C(CCCCNC(=O)c1ccc(O)cc1)NC(=O)C(CCCCNC(=O)c1ccc(O)cc1)NC(=O)c1ccc(O)cc1 (stereo not shown) [Cpd 31]
- IC50 [1, 4]: 395 µM
- IC50 [2, 6]: 395 µM

Structure (SMILES): NC(=O)C(CCCCNC(=O)c1cc(O)cc(O)c1)NC(=O)C(CCCCNC(=O)c1cc(O)cc(O)c1)NC(=O)c1cc(O)cc(O)c1 (stereo not shown) [Cpd 32]
- IC50 [1, 4]: 367 µM
- IC50 [2, 6]: 367 µM

Structure (SMILES): COc1cc(C(=O)NCCCCC(NC(=O)C(CCCCNC(=O)c2cc(OC)c(O)c(OC)c2)NC(C)=O)C(N)=O)cc(OC)c1O (stereo not shown) [Cpd 33]
- Single Tier Assay IC50 ([1]; library MSI 27): 97.85 µg/mL
- IC50 [1, 4]: 145 µM
- Two Tier Assay IC50 ([2]; library MSI 27): 72.17 µg/mL
- IC50 [2, 6]: 107 µM

From patent publication US7166296B2, “Pharmaceutical formulations and ligands for use therein; mimetics for UEA-1” (Sarlan, Ltd., priority 2001, dated 2007)
